Where two headings read alike, the source gives them in different places.
Key:
[1] = target: JNK3 (Homo sapiens, UniProt P53779); assay: Kinase screen: JNK3 alpha 1 assay; assay type: biochemical; conditions: read-out: Mean Remaining Enzyme Activity (%)
Method: Generally, the same procedure was used for all assays. Since the total assay volume was 25.5 microliters, 0.5 microliters of inhibitors at 51× assay concentration were added to the plates before any other addition.
The basic procedure was to add 0.5 microliters inhibitor/control in DMSO to plate. Fifteen microliters of enzyme/substrate/buffer mix were added and incubated for 5 min. Ten microliters MgATP at the relevant concentration were added and incubated for 30 min. The assay was stopped by adding 5 microliters of 3% orthophosphoric acid. The assay was transferred to a p81 filter plate and read in a scintillation counter of 30 sec/well. Note that this assay procedure was not followed for MKK1, which instead involved a two-step assay, and PKC alpha, which required the addition of lipid vesicles.
JNK3 alpha 1 assay: JNK3 alpha 1(5-20 mU diluted in 50 mM Tris (pH 7.5), 0.1 mM EGTA, 1 mg/ml BSA, 0.1% b-mercaptoethanol) was assayed against ATF2 (activating transcription factor in a final volume of 25.5 μl in 50 mM Tris pH 7.5, 0.1 mM EGTA, 0.1% b-Mercaptoethanol, ATF2 (3 μM), 10 mM magnesium acetate and 0.05 mM [33P-g-ATP] (500-1000 cpm/pmole) and incubated for 30 min at room temperature. Assays were stopped by addition of 5 μl of 0.5 M (3%) orthophosphoric acid and then harvested onto P81 Unifilter plates with a wash buffer of 50 mM orthophosphoric acid.

[2] = system: HCT-116
[3] = system: LOX IMVI; conditions: for Mean Optical Densities / Percent Growth: LOX IMVI
[4] = system: IGROV1
[5] = system: SK-MEL-5; assay: cells; conditions: Homo sapiens
[6] = system: NCI-H460
[7] = system: OVCAR-3
[8] = system: SNB-19; assay: cells; conditions: Homo sapiens
[9] = system: U251
[10] = system: A498
[11] = system: DU-145; assay: cells; conditions: Homo sapiens
[12] = system: MALME-3M; assay: cells; conditions: Homo sapiens
[13] = system: MCF7
[14] = system: HCT-116; assay: cells; conditions: Homo sapiens
[15] = HCT-116, log10 concentration −4.0
[16] = HCT-116, log10 concentration −5.0
[17] = HCT-116, log10 concentration −6.0
[18] = HCT-116, log10 concentration −7.0
[19] = HCT-116, log10 concentration −8.0
[20] = IGROV1, log10 concentration −4.0
[21] = IGROV1, log10 concentration −5.0
[22] = IGROV1, log10 concentration −6.0
[23] = IGROV1, log10 concentration −7.0
[24] = IGROV1, log10 concentration −8.0
[25] = NCI-H460, log10 concentration −4.0
[26] = NCI-H460, log10 concentration −5.0
[27] = NCI-H460, log10 concentration −6.0
[28] = NCI-H460, log10 concentration −7.0
[29] = NCI-H460, log10 concentration −8.0
[30] = OVCAR-3, log10 concentration −4.0
[31] = OVCAR-3, log10 concentration −5.0
[32] = OVCAR-3, log10 concentration −6.0
[33] = OVCAR-3, log10 concentration −7.0
[34] = OVCAR-3, log10 concentration −8.0

Chain of JNK3 (P53779 1-422 isoform P53779-2, species assumed): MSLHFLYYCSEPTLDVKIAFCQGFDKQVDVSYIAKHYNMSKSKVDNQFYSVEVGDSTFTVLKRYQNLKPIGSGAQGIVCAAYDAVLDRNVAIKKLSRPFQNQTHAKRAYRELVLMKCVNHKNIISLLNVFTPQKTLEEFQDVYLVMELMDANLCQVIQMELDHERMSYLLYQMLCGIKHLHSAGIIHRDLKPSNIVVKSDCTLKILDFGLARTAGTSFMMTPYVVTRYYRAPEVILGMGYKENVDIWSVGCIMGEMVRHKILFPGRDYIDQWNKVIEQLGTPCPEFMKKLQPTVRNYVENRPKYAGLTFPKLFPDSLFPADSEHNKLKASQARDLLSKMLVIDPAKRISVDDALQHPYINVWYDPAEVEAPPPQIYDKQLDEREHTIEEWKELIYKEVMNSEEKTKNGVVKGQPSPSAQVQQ

CC(C)c1cnn2c(NCc3ccccc3)cc(NCCCCCCCN)nc12 [BS-181]
remaining activity at 10 µM [1]: 128%

CC(C)c1cnn2c(NCc3ccccc3)cc(N[C@@H](CO)[C@H](O)CO)nc12 [ICEC0318, (3S)-3-(7-(Benzylamino)-3-isopropylpyrazolo[1,5-a]pyrimidin-5-ylamino)butane-1,2,4-triol]
TGI ([2]; HCT-116 (Colon Cancer)): >1.00E−4 | Mean Optical Densities [2, 15]: 0.170 | Percent Growth [2, 15]: 1% | Mean Optical Densities [2, 16]: 0.179 | Percent Growth [2, 16]: 2% | Mean Optical Densities [2, 17]: 0.182 | Percent Growth [2, 17]: 2% | Mean Optical Densities [2, 18]: 0.749 | Percent Growth [2, 18]: 62% | Mean Optical Densities [2, 19]: 1.058 | Percent Growth [2, 19]: 95% | TGI ([3]; LOX IMVI (Melanoma)): 1.46E−5 | Mean Optical Densities ([3]; log10 concentration −4.0): 0.224 | Percent Growth ([3]; log10 concentration −4.0): −19% | Mean Optical Densities ([3]; log10 concentration −5.0): 0.328 | Percent Growth ([3]; log10 concentration −5.0): 4% | Mean Optical Densities ([3]; log10 concentration −6.0): 0.326 | Percent Growth ([3]; log10 concentration −6.0): 4% | Mean Optical Densities ([3]; log10 concentration −7.0): 1.208 | Percent Growth ([3]; log10 concentration −7.0): 64% | Mean Optical Densities ([3]; log10 concentration −8.0): 1.614 | Percent Growth ([3]; log10 concentration −8.0): 92% | TGI ([4]; IGROV1 (Ovarian Cancer)): >1.00E−4 | Mean Optical Densities [4, 20]: 0.451 | Percent Growth [4, 20]: 4% | Mean Optical Densities [4, 21]: 0.510 | Percent Growth [4, 21]: 10% | Mean Optical Densities [4, 22]: 0.528 | Percent Growth [4, 22]: 12% | Mean Optical Densities [4, 23]: 1.088 | Percent Growth [4, 23]: 68% | Mean Optical Densities [4, 24]: 1.429 | Percent Growth [4, 24]: 103% | GI50 ([5]; SK-MEL-5): 192 nM | CC50 ([5]; SK-MEL-5, read-out: LC50): 5980 nM | TGI ([6]; NCI-H460 (Non-Small Cell Lung Cancer)): 1.71E−5 | Mean Optical Densities [6, 25]: 0.094 | Percent Growth [6, 25]: −15% | Mean Optical Densities [6, 26]: 0.158 | Percent Growth [6, 26]: 5% | Mean Optical Densities [6, 27]: 0.181 | Percent Growth [6, 27]: 7% | Mean Optical Densities [6, 28]: 0.919 | Percent Growth [6, 28]: 80% | Mean Optical Densities [6, 29]: 1.138 | Percent Growth [6, 29]: 102% | GI50 ([7]; Homo sapiens, OVCAR-3): 335 nM | CC50 ([7]; Homo sapiens, OVCAR-3, read-out: LC50): > 100000 nM | TGI ([7]; OVCAR-3 (Ovarian Cancer)): >1.00E−4 | Mean Optical Densities [7, 30]: 0.313 | Percent Growth [7, 30]: 9% | Mean Optical Densities [7, 31]: 0.317 | Percent Growth [7, 31]: 10% | Mean Optical Densities [7, 32]: 0.306 | Percent Growth [7, 32]: 8% | Mean Optical Densities [7, 33]: 0.700 | Percent Growth [7, 33]: 97% | Mean Optical Densities [7, 34]: 0.795 | Percent Growth [7, 34]: 118% | GI50 ([8]; SNB-19): 283 nM | CC50 ([8]; SNB-19, read-out: LC50): > 100000 nM | TGI ([9]; U251 (CNS Cancer)): >1.00E−4 | Mean Optical Densities ([9]; U251, log10 concentration −4.0): 0.262 | Percent Growth ([9]; U251, log10 concentration −4.0): 2% | Mean Optical Densities ([9]; U251, log10 concentration −5.0): 0.289 | Percent Growth ([9]; U251, log10 concentration −5.0): 5% | Mean Optical Densities ([9]; U251, log10 concentration −6.0): 0.299 | Percent Growth ([9]; U251, log10 concentration −6.0): 6% | Mean Optical Densities ([9]; U251, log10 concentration −7.0): 0.999 | Percent Growth ([9]; U251, log10 concentration −7.0): 81% | Mean Optical Densities ([9]; U251, log10 concentration −8.0): 1.168 | Percent Growth ([9]; U251, log10 concentration −8.0): 99% | TGI ([10]; A498 (Renal Cancer)): 4.83E−7 | Mean Optical Densities ([10]; A498, log10 concentration −4.0): 0.386 | Percent Growth ([10]; A498, log10 concentration −4.0): −54% | Mean Optical Densities ([10]; A498, log10 concentration −5.0): 0.365 | Percent Growth ([10]; A498, log10 concentration −5.0): −56% | Mean Optical Densities ([10]; A498, log10 concentration −6.0): 0.414 | Percent Growth ([10]; A498, log10 concentration −6.0): −50% | Mean Optical Densities ([10]; A498, log10 concentration −7.0): 1.321 | Percent Growth ([10]; A498, log10 concentration −7.0): 109% | Mean Optical Densities ([10]; A498, log10 concentration −8.0): 1.280 | Percent Growth ([10]; A498, log10 concentration −8.0): 100% | GI50 ([11]; DU-145): 377 nM | CC50 ([11]; DU-145, read-out: LC50): > 100000 nM | GI50 [12]: 404 nM | CC50 ([12]; read-out: LC50): > 100000 nM | TGI ([13]; MCF7 (Breast Cancer)): >1.00E−4 | Mean Optical Densities ([13]; MCF7, log10 concentration −4.0): 0.229 | Percent Growth ([13]; MCF7, log10 concentration −4.0): 6% | Mean Optical Densities ([13]; MCF7, log10 concentration −5.0): 0.237 | Percent Growth ([13]; MCF7, log10 concentration −5.0): 7% | Mean Optical Densities ([13]; MCF7, log10 concentration −6.0): 0.244 | Percent Growth ([13]; MCF7, log10 concentration −6.0): 7% | Mean Optical Densities ([13]; MCF7, log10 concentration −7.0): 0.805 | Percent Growth ([13]; MCF7, log10 concentration −7.0): 72% | Mean Optical Densities ([13]; MCF7, log10 concentration −8.0): 1.098 | Percent Growth ([13]; MCF7, log10 concentration −8.0): 107% | GI50 ([14]; HCT-116): 161 nM | CC50 ([14]; HCT-116, read-out: LC50): > 100000 nM

— patent US8067424B2, “Selective inhibitors for cyclin-dependent kinases” (Emory University, priority 2007, dated 2011)
